Results taken from US20260130933A1, “PHARMACEUTICAL COMPOSITION FOR PREVENTION OR TREATMENT OF NEPHROPATHY AND/OR DIABETES MELLITUS, COMPRISING ENAVOGLIFLOZIN” (DAEWOONG PHARMACEUTICAL CO., LTD., priority 2022, published 2026).

Assay: Example 1: phase 3 trial, enavogliflozin 0.3 mg once a day as monotherapy vs placebo for 24 weeks in patients with type 2 diabetes (HbA1c, FPG, C-peptide, body weight, lipids, blood pressure, HOMA, UACR, UGCR, adiponectin, leptin, safety)
Assay type: in vivo, human
Method: When a subject voluntarily gave written consent to participate in this clinical trial, a screening test was conducted. […] However, when the administration of a hypoglycemic agent was interrupted before the clinical trial Visit 1 (screening), at least an 8-week washout period, including the discontinuation period, was required, and during this period, a stable diet and exercise program was followed. Naïve patients were screened without a separate washout period, and the criteria for naïve patients were defined as patients who had not been administered hypoglycemic agents within 24 weeks prior to the date of obtaining written consent. […] In addition, they were instructed to maintain regular exercise and dietary control starting from 8 weeks prior to screening without changing their daily life patterns during the clinical trial period.

OC[C@H]1O[C@@H](c2cc(Cc3ccc(C4CC4)cc3)c(Cl)c3c2CCO3)[C@H](O)[C@@H](O)[C@@H]1O [Enavogliflozin, (2S,3R,4R,5S,6R)-2-(7-chloro-6 (4-cyclopropylbenzyl)-2,3-dihydrobenzofuran-4-yl)-6-(hydroxymethyl)tetrahydro-2H-pyran-3,4,5-triol]
HbA1c, Mean (SD) (week 18): 6.88(0.54) % | LDL-C change from baseline, LS mean (week 18): -0.32 mg/dL | LDL-C change from baseline, Mean (week 18): 1.69 mg/dL | LDL-C, Mean (week 18): 97.16 mg/dL | Subjects achieving HbA1c target of <6.5% (week 18): 24(29.27) % | Subjects achieving HbA1c target of <7% (week 18): 47(57.32) % | Subjects achieving therapeutic glycemic response (HbA1c change >0.5% or HbA1c<7%) (week 18): 60(73.17) % | Systolic blood pressure, Mean (week 18): 121.63 mmHg | body weight change from baseline, LS mean (week 18): -3.42 kg | body weight change from baseline, Mean (week 18): -3.44 kg | diastolic blood pressure change from baseline, LS mean (week 18): −4.09 mmHg | diastolic blood pressure change from baseline, Mean (week 18): −3.63 mmHg | fasting C-peptide, Mean (SD) (week 18): 0.65 ng/mL | systolic blood pressure change from baseline, LS mean (week 18): −6.56 mmHg | systolic blood pressure change from baseline, Mean (week 18): −6.22 mmHg | total cholesterol change from baseline, LS mean (week 18): 6.45 mg/dL | total cholesterol change from baseline, Mean (week 18): 8.40 mg/dL | total cholesterol, Mean (week 18): 169.82 mg/dL | triglycerides change from baseline, LS mean (week 18): -8.82 mg/dL | triglycerides change from baseline, Mean (week 18): -4.14 mg/dL | triglycerides, Mean (week 18): 113.30 mg/dL | FPG change from baseline, LS mean difference (week 18, vs placebo): -33.40 mg/dL | HDL-C change from baseline, LS mean difference (week 18, vs placebo): 2.69 mg/dL | HOMA-IR change from baseline, LS mean difference (week 18, vs placebo): −1.49 | HOMA-β change from baseline, LS mean difference (week 18, vs placebo): 22.40 | HbA1c change from baseline, LS mean difference (week 18, vs placebo): −0.79 % p | LDL-C change from baseline, LS mean difference (week 18, vs placebo): -2.35 mg/dL | Odds ratio for achieving HbA1c<6.5% (week 18, vs placebo): 5.58 | Odds ratio for achieving HbA1c<7% (week 18, vs placebo): 4.85 | Odds ratio for achieving therapeutic response (week 18, vs placebo): 7.45 | UACR change from baseline, LS mean difference (week 18, vs placebo): -13.39 g/kg | UGCR change from baseline, LS mean difference (week 18, vs placebo): 47.66 mg/mg | adiponectin change from baseline, LS mean difference (week 18, vs placebo): 1.04 µg/mL | body weight change from baseline, LS mean difference (week 18, vs placebo): -2.37 kg | diastolic blood pressure change from baseline, LS mean difference (week 18, vs placebo): −1.90 mmHg | fasting C-peptide change from baseline, LS mean difference (week 18, vs placebo): -0.11 ng/mL | leptin change from baseline, LS mean difference (week 18, vs placebo): -2.36 ng/mL | systolic blood pressure change from baseline, LS mean difference (week 18, vs placebo): −3.36 mmHg | total cholesterol change from baseline, LS mean difference (week 18, vs placebo): -0.99 mg/dL | triglycerides change from baseline, LS mean difference (week 18, vs placebo): -17.74 mg/dL | Body weight, Mean (week 24): 65.28 kg | Diastolic blood pressure, Mean (week 24): 72.68 mmHg | FPG change from baseline, LS mean (SE) (week 24): −31.66(3.68) mg/dL | FPG change from baseline, Mean (SD) (week 24): −30.00(20.73) mg/dL | FPG, Mean (SD) (week 24): 111.00(14.56) mg/dL | HDL-C change from baseline, LS mean (week 24): 4.39 mg/dL | HDL-C change from baseline, Mean (week 24): 4.13 mg/dL | HDL-C, Mean (week 24): 56.05 mg/dL | HbA1c change from baseline, LS mean (SE) (week 24): −0.88(0.10) % p | HbA1c change from baseline, Mean (SD) (week 24): −0.84(0.66) % p | HbA1c, Mean (SD) (week 24): 6.80(0.59) % | LDL-C change from baseline, LS mean (week 24): -2.92 mg/dL | LDL-C change from baseline, Mean (week 24): -1.03 mg/dL | LDL-C, Mean (week 24): 94.44 mg/dL | Subjects achieving HbA1c target of <6.5% (week 24): 29(35.37) % | Subjects achieving HbA1c target of <7% (week 24): 58(70.73) % | Subjects achieving therapeutic glycemic response (HbA1c change >0.5% or HbA1c<7%) (week 24): 68(82.93) % | Systolic blood pressure, Mean (week 24): 121.29 mmHg | body weight change from baseline, LS mean (week 24): -3.47 kg | body weight change from baseline, Mean (week 24): -3.48 kg | diastolic blood pressure change from baseline, LS mean (week 24): −3.92 mmHg | diastolic blood pressure change from baseline, Mean (week 24): −3.55 mmHg | fasting C-peptide, Mean (SD) (week 24): 0.64 ng/mL | systolic blood pressure change from baseline, LS mean (week 24): −7.27 mmHg | systolic blood pressure change from baseline, Mean (week 24): −6.55 mmHg | total cholesterol change from baseline, LS mean (week 24): 4.84 mg/dL | total cholesterol change from baseline, Mean (week 24): 6.58 mg/dL | total cholesterol, Mean (week 24): 168.00 mg/dL | triglycerides change from baseline, LS mean (week 24): -0.08 mg/dL | triglycerides change from baseline, Mean (week 24): 1.95 mg/dL | triglycerides, Mean (week 24): 119.39 mg/dL | FPG change from baseline, LS mean difference (week 24, vs placebo): -40.08 mg/dL | HDL-C change from baseline, LS mean difference (week 24, vs placebo): 4.05 mg/dL | HOMA-IR change from baseline, LS mean difference (week 24, vs placebo): −1.94 | HOMA-β change from baseline, LS mean difference (week 24, vs placebo): 5.88 | HbA1c change from baseline, LS mean difference (week 24, vs placebo): −0.99 % p | LDL-C change from baseline, LS mean difference (week 24, vs placebo): -6.91 mg/dL | Odds ratio for achieving HbA1c<6.5% (week 24, vs placebo): 12.10 | Odds ratio for achieving HbA1c<7% (week 24, vs placebo): 9.08 | Odds ratio for achieving therapeutic response (week 24, vs placebo): 12.98 | UACR change from baseline, LS mean difference (week 24, vs placebo): -13.92 g/kg | UGCR change from baseline, LS mean difference (week 24, vs placebo): 47.36 mg/mg | adiponectin change from baseline, LS mean difference (week 24, vs placebo): 0.98 µg/mL | body weight change from baseline, LS mean difference (week 24, vs placebo): -2.47 kg | diastolic blood pressure change from baseline, LS mean difference (week 24, vs placebo): −3.12 mmHg | fasting C-peptide change from baseline, LS mean difference (week 24, vs placebo): -0.13 ng/mL | leptin change from baseline, LS mean difference (week 24, vs placebo): -2.99 ng/mL | systolic blood pressure change from baseline, LS mean difference (week 24, vs placebo): −5.75 mmHg | total cholesterol change from baseline, LS mean difference (week 24, vs placebo): -6.40 mg/dL | triglycerides change from baseline, LS mean difference (week 24, vs placebo): -28.56 mg/dL
